From patent publication US4710500A, “1-(4'-fluorophenyl)-3,5-substituted indoles useful in the treatment of psychic disorders and pharmaceutical compositions thereof” (H. Lundbeck A/S, priority 1985, dated 1987)
pIC50: −log10 of the molar value. Counter-ions that a name gives are not always drawn. Like-named read-outs stand apart in the source and are kept apart here.

Experiments:
[1] = biological target: T1, dopamine (DA) D-2 receptors (Rattus norvegicus, UniProt P61169); assay: 3H-spiroperidol binding, dopamine D-2 receptors in rat striatal membranes
T1 construct: DA D-2 receptors in rat striatal membranes; from tissue; host or cells: rat striatal membranes
Procedure: (§1) 4. ^3 H-spiroperidol bindings
The affinity of compounds to dopamine (DA) D-2 receptors and serotomin2 (5-HT2) receptors was determined by in vitro receptor binding technique.
Arnt, J., J. Hyttel and J.-J. Larsen: Acta pharmacol. et toxicol.

[2] = biological target: T2, serotomin2 (5-HT2) receptors (Rattus norvegicus, UniProt P14842); assay: 3H-spiroperidol binding, 5-HT2 receptors in rat cortical membranes; conditions: in vitro, read-out: 3H-Spiroperidol bindings 5-HT2 receptors IC50
T2 construct: 5-HT2 receptors in rat cortical membranes; from tissue; host or cells: rat cortical membranes
Procedure: as §1
The affinity of compounds to dopamine (DA) D-2 receptors and serotomin2 (5-HT2) receptors was determined by in vitro receptor binding technique. Binding of ^3 H-spiroperidol to DA D-2 receptors in rat striatal membranes and to 5-HT2 receptors in rat cortical membranes was determined as described in detail by Arnt et al. (1984).
(§2) Arnt, J., J. Hyttel and J.-J. Larsen: Acta pharmacol. et toxicol. 55, 363-372, 1984.

Catalepsy = type: in vivo, rat; conditions: for Catalep. ED50 (sc) 24 h / Catalep. ED50 (sc) 1-6 h: *ED50 from sc administration
[3] = system: methylphenidate-induced gnawing; assay: Methylphenidate antagonism; type: in vivo, mice; conditions: for MePh Antg. ED50 (sc): *ED50 from sc administration; for ED50: Mus musculus
5-HT2 receptor = biological target: T3, 5-HT2 receptor (Rattus norvegicus, UniProt P14842); assay: Quipazine inhibition (head twitches); type: in vivo; conditions: sc 2 hours before quipazine 15 umol/kg sc
T3 construct: from tissue; host or cells: living rats (in vivo), CNS
Procedure: Quipazine and a number of other compounds, which increase 5-HT2 receptor activity in the CNS, induce a characteristic rapid shake (twitch) of the head. This response is inhibited by 5-HT2 receptor antagonists (Vetulani et al. 1980, Arnt et al. 1984).
The test compound or saline is injected subcutaneously 2 hours before subcutaneous injection of quipazine hemimalecate (15umol/kg). At least 3 dose groups, each consisting of at least 4 rats, are used. The rats are individually placed in observation cages (12×25 cm) and the number of head twitches are counted 30-40 min after quipazine administration. Inhibition of head twitches is expressed in per cent of the number of head twitches in the control group. ED 50 values are calculated by log-probit analysis.
Vetulani, J., B.B. Beduarczyk, K. Reichenberg and A. Rokost: Neuropharmacology 19, 155-158, […].
as §2

in vivo = conditions: mouse, iv
[4] = mice, methylphenidate s.c. 60 mg/kg
[5] = i.p. test substance, mice, methylphenidate s.c. 60 mg/kg
[6] = Rattus norvegicus, po, read-out: Catalep. ED50(po) 1-6 h
[7] = ip, read-out: MePh Antg. ED50(ip)
[8] = rat striatal membranes, in vitro, read-out: 3H-Spiroperidol bindings DA-2 receptors IC50
[9] = Rattus norvegicus, po, 24 h, read-out: Catalep. ED50(po) 24 h
[10] = Rattus norvegicus, sc, 24 h, read-out: Catalep. ED50 (sc) 24 h
[11] = Rattus norvegicus, sc, read-out: Catalep. ED50 (sc) 1-6 h
[12] = ip, i.p. test substance, mice, methylphenidate s.c. 60 mg/kg, read-out: MePh Antg. ED50(ip)
[13] = read-out: Catalep. ED50(po) 1-6 h, po, rat, 1-6 h
[14] = read-out: Catalep. ED50(po) 24 h, po, rat, 24 h

T2 sequence (P14842 whole entry): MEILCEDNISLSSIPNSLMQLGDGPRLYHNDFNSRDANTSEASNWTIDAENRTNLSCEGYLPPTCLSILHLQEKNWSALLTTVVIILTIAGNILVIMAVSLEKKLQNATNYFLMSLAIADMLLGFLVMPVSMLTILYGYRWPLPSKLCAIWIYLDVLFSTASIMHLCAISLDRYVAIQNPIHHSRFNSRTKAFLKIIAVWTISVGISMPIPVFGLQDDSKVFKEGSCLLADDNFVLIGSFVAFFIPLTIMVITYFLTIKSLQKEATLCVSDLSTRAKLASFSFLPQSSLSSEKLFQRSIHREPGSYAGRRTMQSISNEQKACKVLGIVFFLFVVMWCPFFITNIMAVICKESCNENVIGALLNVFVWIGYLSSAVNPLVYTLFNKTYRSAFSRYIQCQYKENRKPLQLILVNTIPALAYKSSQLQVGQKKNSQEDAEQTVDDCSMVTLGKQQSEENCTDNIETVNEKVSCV
T3 sequence (P14842 whole entry): as above
T1 sequence (P61169 whole entry): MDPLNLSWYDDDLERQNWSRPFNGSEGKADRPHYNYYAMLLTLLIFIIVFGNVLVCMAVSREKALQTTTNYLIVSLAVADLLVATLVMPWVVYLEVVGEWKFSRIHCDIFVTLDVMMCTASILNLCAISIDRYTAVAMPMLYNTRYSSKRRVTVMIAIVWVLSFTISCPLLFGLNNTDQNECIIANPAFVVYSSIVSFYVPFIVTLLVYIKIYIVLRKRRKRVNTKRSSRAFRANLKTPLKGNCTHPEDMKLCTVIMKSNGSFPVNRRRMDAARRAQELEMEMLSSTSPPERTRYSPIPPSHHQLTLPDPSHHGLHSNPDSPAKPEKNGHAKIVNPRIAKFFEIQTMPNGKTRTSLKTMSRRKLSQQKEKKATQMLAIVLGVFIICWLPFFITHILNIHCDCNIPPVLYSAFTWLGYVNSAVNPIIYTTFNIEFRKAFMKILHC

| SMILES | pIC50 [1] | pIC50 [2] | MePh Antg. ED50 (sc) [3, 4] [µmol/kg] | Qvipaz. inh. ED50(sc) (5-HT2 receptor) [µmol/kg] | other results |
| --- | --- | --- | --- | --- | --- |
| OCCN1CC=C(c2cn(-c3ccc(F)cc3)c3ccc(F)cc23)CC1 [Lu 23-160, 5-fluoro-1-(4'-flurophenyl)-3-(1-(2-hydroxyethyl)-1,2,3,6-tetrahydropyridin-4-yl)-1H-indole, oxalate] | 7.96 | 7.47 | 3.4 |  | Catalep. ED50 (sc) 24 h (Catalepsy; rat, 24 h): 5.2 µmol/kg |
| OCCCN1CC=C(c2cn(-c3ccc(F)cc3)c3ccc(F)cc23)CC1 [Lu 23-175, 5-Fluor-1-(4'-fluorophenyl)-3-(1-(3-hydroxypropyl)-1,2,3,6-tetrahydropyridin-4-yl)-1H-indole, oxalate] | 7.96 | 8.17 | 0.32 |  | Catalep. ED50 (sc) 1-6 h (Catalepsy; rat, 1-6 h): 0.68 µmol/kg |
| O=C1OCCN1CCN1CC=C(c2cn(-c3ccc(F)cc3)c3ccc([N+](=O)[O-])cc23)CC1 [Lu 23-134, 1-(4'-Fluorophenyl)-5-nitro-3-(1-(2-oxazolidinon-3-ylethyl)-1,2,36-tetrahydropyridin-4-yl)-1H-indole, maleate] | 8.55 | 7.82 | 9.0 |  | Catalep. ED50(po) 1-6 h (Catalepsy; po, rat, 1-6 h): 1.1 µmol/kg; Catalep. ED50(po) 24 h (Catalepsy; po, rat, 24 h): > 8.8 µmol/kg |
| CN1CC=C(c2cn(-c3ccsc3)c3ccc(Cl)cc23)CC1.O=C(O)/C=C\C(=O)O [Lu 24-001, 5-Chloro-3-(1-methyl-1,2,3,6-tetrahydropyridin-4-yl)-1-(3-thienyl)-1H-indole, maleate] |  | 8.06 |  | 0.19 | MePh Antg. ED50(ip) [3, 5]: 2.6 µmol/kg |
| O=C1NCCN1CCN1CC=C(c2cn(-c3ccc(F)cc3)c3ccc([N+](=O)[O-])cc23)CC1 [Lu 23-142, 1-(4'-Fluorophenyl)-3-(1-(2-imidazolidinon-1-ylethyl)-1,2,3,6-tetrahydropridin-4-yl)-5-nitro-1H-indole] |  | 8.17 | 2.6 |  |  |
| CN(C)CCCN1c2ccccc2Sc2ccc(Cl)cc21 [Clorpromazine, reference compound] |  |  |  |  | ED50 (Catalepsy; [6]): 70 µmol/kg; ED50 [3, 7]: 23 µmol/kg; LD50 (in vivo): 120 to 180 µmol/kg |
| CN1CC=C(c2cn(-c3ccc(F)cc3)c3ccc(F)cc23)CC1.Cl [Lu 21-018, 5-Fluoro-1-(4'-fluorophenyl)-3-(1-methyl-1,2,3,6-tetrahydropyridin-4-yl)-1H-indole, hydrochloride] |  | 8.52 |  | 0.15 | pIC50 [1, 8]: 9.13; ED50 (Catalepsy; [9]): > 6.9 µmol/kg; ED50 (Catalepsy; [6]): 2 µmol/kg; ED50 [3, 7]: 0.58 µmol/kg |
| Cc1ccc2c(c1)c(C1=CCN(C)CC1)cn2-c1ccc(F)cc1.Cl [Lu 20-089, 1-(4'-Fluorophenyl)-5-methyl-3-(1-methyl-1,2,3,6-tetrahydropyridin-4-yl)-1H-indole, hydrochloride] | 9.47 | 8.74 |  | 0.12 | Catalep. ED50(po) 1-6 h (Catalepsy; po, rat, 1-6 h): 0.43 µmol/kg; Catalep. ED50(po) 24 h (Catalepsy; po, rat, 24 h): 6.5 µmol/kg; MePh Antg. ED50(ip) [3, 5]: 0.18 µmol/kg |
| Br.CN1CC=C(c2cn(-c3ccc(F)cc3)c3ccc(Cl)cc23)CC1 [Lu 22-117, 5-Chloro-1-(4'-fluorophenyl)-3-(1-methyl-1,2,3,6-tetrahydropyridin-4-yl)-1H-indole, hydrobromide] | 8.92 | 9.18 |  | 0.052 | ED50 (Catalepsy; [10]): > 0.37 µmol/kg; ED50 (Catalepsy; [11]): 0.09 µmol/kg; ED50 [3, 7]: 0.06 µmol/kg |
| OCCN1CC=C(c2cn(-c3ccc(F)cc3)c3ccc(C(F)(F)F)cc23)CC1 [Lu 23-156, 1-(4'-Fluorophenyl)-3-(1-(2-hydroxyethyl)-1,2,3,6-tetrahydropyridin-4-yl) -5-trifluoromethyl-1H-indole] | 7.72 | 7.82 |  | 0.03 | ED50 (Catalepsy; [10]): 1.1 µmol/kg; ED50 (Catalepsy; [11]): < 0.19 µmol/kg; ED50 ([3]; sc, read-out: MePh Antg. ED50 (sc)): 0.07 µmol/kg |
| CN1CC=C(c2cn(-c3ccccc3F)c3ccc([N+](=O)[O-])cc23)CC1 [Lu 24-003, 1-(2'-Fluorophenyl)-5-nitro-3-(1-methyl-1,2,3,6-tetrahydropyridin-4-yl)-1H-indole, maleat] | 8.22 | 7.85 | 0.09 |  |  |
| O=C1CCCN1CCN1CCN(c2cn(-c3ccc(F)cc3)c3ccc(C(F)(F)F)cc23)CC1 [Lu 22-133, 1-(4'-Fluorophenyl)-3-(4-(1-pyrrolidin-2-onylethyl)-1-piperazino)-5-trifluoromethyl-1H-indole] |  | 8.72 |  | 0.15 | ED50 (Catalepsy; [10]): 1.7 µmol/kg; ED50 (Catalepsy; [11]): 0.66 µmol/kg; ED50 [3, 12]: 0.82 µmol/kg |
| O=[N+]([O-])c1ccc2c(c1)c(C1=CCN(CCO)CC1)cn2-c1ccc(F)cc1 [Lu 23-150, 1-(4'-fluoropheynl)-3-(1-(2-hydroxyethyl)-1,2,3,6-tetrahydropyridin-4-yl)-5-nitro-1H-indole] | 8.33 | 8.00 | 0.07 |  | Catalep. ED50(po) 1-6 h (Catalepsy; po, rat, 1-6 h): 0.21 µmol/kg |
| O=C1NCCN1CCN1CCC(c2cn(-c3ccc(F)cc3)c3ccccc23)CC1 [Lu 23-086, 1-(4'-Fluorophenyl)-3-(1-(2--imidazolidinon-1-ylethyl)-4-piperidyl)-1H-indole] |  | 8.54 | > 98 | 0.036 | pIC50 [1, 8]: 7.38 |
| O=C1CCCN1CCN1CC=C(c2cn(-c3ccc(F)cc3)c3ccc([N+](=O)[O-])cc23)CC1 [Lu 23-024, 1-(4'-Fluorophenyl)-5-nitro-3-(1-pyrrolidin-2-onylethyl)-1,2,3,6-tetrahydropyridin-4-yl)-1H-indole, hydrochloride] |  | 8.28 |  |  | Catalep. ED50 (sc) 1-6 h (Catalepsy; rat, 1-6 h): 6.8 µmol/kg; Catalep. ED50 (sc) 24 h (Catalepsy; rat, 24 h): > 10 µmol/kg; MePh Antg. ED50(ip) [3, 5]: 0.65 µmol/kg |
| Fc1ccc(-n2cc(N3CCNCC3)c3cc(C(F)(F)F)ccc32)cc1 [Lu 21-153, 1-(4'-Fluorophenyl)-3-piperazino-5-trifluoromethyl-1H-indole] |  | 8.17 |  | 0.37 | pIC50 [1, 8]: 8.43; ED50 (Catalepsy; [13]): 7.1 µmol/kg; ED50 (Catalepsy; [14]): 16 µmol/kg; ED50 [3, 12]: 2 µmol/kg |
| CN1CCN(c2cn(-c3ccc(F)cc3)c3ccc(C(F)(F)F)cc23)CC1 [Lu 21-123, 1-(4'-Fluorophenyl)-3-(4-methylpiperazio)-5-trifluoromethyl-1H-indole, dihydrochloride] |  | 8.17 |  |  | pIC50 [1, 8]: 8.77; ED50 (Catalepsy; [13]): 0.08 µmol/kg; ED50 (Catalepsy; [14]): 0.62 µmol/kg; ED50 [3, 12]: 0.09 µmol/kg |
| O=C1NCCN1CCN1CCN(c2cn(-c3ccc(F)cc3)c3ccc(C(F)(F)F)cc23)CC1 [Lu 23-001, 1-(4'-Flurophenyl)-3-(4-(2-imidazolidinon-1-ylethyl)-1-piperazino)-5-trifluoromethyl-1H-indole, dihydrobromide] |  | 7.74 |  | 0.047 | pIC50 [1, 8]: 8.18; Catalep. ED50(po) 1-6 h (Catalepsy; po, rat, 1-6 h): 1.2 µmol/kg; Catalep. ED50(po) 24 h (Catalepsy; po, rat, 24 h): 2.6 µmol/kg; MePh Antg. ED50(ip) [3, 5]: 0.22 µmol/kg |
| Cc1nccn1CCN1CC=C(c2cn(-c3ccc(F)cc3)c3ccc(C(F)(F)F)cc23)CC1 [Lu 23-173, 1-(4'-Fluorophenyl)-3-(1-(2-methyl-1-imidazole-2-ethyl)-1,2,3,6-tetrahydropyridin-4-yl)-5-trifluoromethyl-1H-indole, difumarate] | 7.38 | 7.22 | 0.77 | > 7.1 | Catalep. ED50 (sc) 1-6 h (Catalepsy; rat, 1-6 h): 1.8 µmol/kg |
| CN1CC=C(c2cn(-c3ccc(F)cc3)c3ccc(C(F)(F)F)cc23)CC1.O=C(O)C(=O)O [Lu 21-120, 1-(4'-Fluorophenyl)-3-(1-methyl-1,2,3,6-tetrahydropyridin-4-yl)-5-trifluoromethyl-1H-indole, oxalate] | 9.21 | 8.51 |  | 0.03 | ED50 (Catalepsy; [9]): 0.35 µmol/kg; ED50 (Catalepsy; [6]): 0.32 µmol/kg; ED50 [3, 7]: 0.08 µmol/kg |
